Patent US7741520B2, “Sulfonanilide analogs as selective aromatase modulators (SAMs)” (The Ohio State University Research Foundation, priority 2006, dated 2010)

How the values were obtained:
[1] = test system: aromatase activity in SK-BR-3 breast cancer cells; assay: Aromatase tritiated water-release assay in SK-BR-3 cell lines (first compound set); assay type: cell-based, human; details: SK-BR-3 cells, 24 h treatment; five concentrations, each in triplicate; read-out: IC50 (μM), suppression of aromatase activity in SK-BR-3 breast cancer cells
Experimental: Aromatase Tritiated Water-Release Assay in SK-BR-3 Cell Lines. SK-BR-3 cells were obtained from ATCC (Rockville, Md.). Cell cultures were maintained in phenol red-free custom media (MEM, Earle's salts, 1.5× amino acids, 2× nonessential amino acids, L-glutamine, 1.5× vitamins, Gibco BRL) supplemented with 10% fetal bovine serum (FBS), 2 mM L-glutamine, and 20 mg/L gentamycin. Measurement of aromatase enzyme activity was based on the tritium water release assay. 24 Cells in 100 mm Petri dish were treated with 0.1% DMSO (control), and inhibitors at the indicated concentrations. After 24 h, the media was changed and the cells were incubated with 100 nM [1â-3H]-androst-4-ene-3,17-dione ([…]) for 3 h. Subsequently, the reaction mixture was removed, and proteins were precipitated using 10% trichloroacetic acid at 42° C. for 20 min. After a brief centrifugation, the media was extracted three times with an equal amount of chloroform to extract unused substrate and further dextran-treated charcoal. After centrifugation, a 250-μL aliquot containing the product was counted in 5 mL of liquid scintillation mixture. Results were corrected for blanks and for the cell contents of culture flasks, and results were expressed as picomoles of 3H2O formed per hour incubation time per million live cells (pmol/h/10^6 cells). To determine the amount of cells in each flask, the cells were trypsinized and analyzed using the diphenylamine DNA assay adapted to a 96-well plate. (Natarajan N.; Shambaugh, G. E., 3rd; Elseth K. M.; Haines G. K.; Radosevich J. A. Adaptation of the diphenylamine (DPA) assay to a 96-well plate tissue culture format and comparison with the MTT assay. Biotechniques 1994, 17, 166-171; incorporated herein by reference). IC50 sigmoidal dose-response data were analyzed with Microsoft Excel and the Graphpad Prism (Version 3.0) program.

[2] = test system: CYP19 mRNA expression in SK-BR-3 cells; assay: CYP19 mRNA expression by real-time RT-PCR in SK-BR-3 cells; assay type: cell-based, human; details: 5 μM, 24 h (FIG. 14)
Experimental: (§1) RNA Extraction. Total RNA was isolated using the TRIzol reagent according to the manufacturer's protocol. Total RNA pellets were dissolved in DNase- and RNase-free water and quantitated using a spectrophotometer. The quality of RNA samples was determined by electrophoresis through agarose gels and staining with ethidium bromide; the 18S and 28S rRNA bands were visualized under ultraviolet light.
(§2) cDNA Synthesis. Isolated total RNA (2 μg) was treated with DNase I Amplification grade, according to the recommended protocol to eliminate any DNA before reverse transcription. Treated total RNA was denatured at 65° C. for 5 min in the presence of 2.5 ng/μL random hexamers and 0.5 mM dNTP mix. The samples were snap-cooled on ice and centrifuged briefly. Complementary DNA (cDNA) was synthesized using Superscript II reverse transcriptase according to the recommended protocol. Briefly, the reactions were conducted in the presence of 1× First-Strand Buffer and 20 mM DTT at 42° C. for 50 min and consequently inactivated at 70° C. for 15 min. The cDNA generated was used as a template in realtime PCR reactions.
Real-Time PCR. Real-time PCR was performed using the Opticon 2 system from MJ Research (Waltham, Mass.). For the CYP19 total gene the PCR reaction mixture consisted of Taqman Universal PCR Master Mix (Applied Biosystems), 600 nM of CYP19 primer (sense: 5′-TGTCTCTTTGTTCTTCATGCTATTTCTC-3′ (SEQ ID NO: 1); antisense: 5′-TCACCAATAACAGTCTGGATTTCC-3′) (SEQ ID NO: 2); 250 nM Taqman probe (6FAM 5′-TGCAAAGCACCCTAATGTTGAAGAGGCAAT-3′TAMRA) (SEQ ID NO: 3) (Invitrogen), 18S rRNA (Applied Biosystems, Foster City, Calif.), and 2.0 μL of each RT sample in a final volume of 20 μL. The Taqman probe was designed to anneal to a specific sequence of the aromatase gene between the forward and the reverse primers. Cycling conditions were 50° C. for 2 mm and 95° C. for 10 mm, followed by 50 cycles at 95° C. for 15 s and 60° C. for 1 mm.
as §1, with “extraction.” for “Extraction.”, “DNase,” for “DNase- and”
as §2, with “synthesis.” for “Synthesis.”, “real-time” for “realtime”
Real-time PCR. Real-time PCR was performed using the Opticon™ 2 system from MJ Research (Waltham, Mass.). For the CYP19 total gene the PCR reaction mixture consisted of Taqman® Universal PCR Master Mix (Applied Biosystems), 600 nM of CYP19 primer (sense: 5′-TGTCTCTTTGTTCTTCATGCTATTTCTC-3′ (SEQ ID NO: 1); antisense: 5′-TCACCAATAACAGTCTGGATTTCC-3′) (SEQ ID NO: 2); 250 nM Taqman probe (6FAM 5′-TGCAAAGCACCCTAATGTTGAAGAGGCAAT-3′TAMRA) (SEQ ID NO: 3) (Invitrogen), and 2.0 μL of each cDNA sample in a final volume of 20 μL. […]

[3] = molecular target: T1, aromatase activity in JAR choriocarcinoma placental cells (Homo sapiens, UniProt P11511); assay: Tritiated water-release assay in JAR cells; assay type: cell-based; details: 24 h, 15 μM (FIG. 11), read-out: decrease of aromatase activity in JAR cells
T1 construct: JAR choriocarcinoma placental cells (which produce aromatase expression from promoter I.1 mediated by protein kinase C); host or cells: JAR
T1 sequence (P11511 1-503): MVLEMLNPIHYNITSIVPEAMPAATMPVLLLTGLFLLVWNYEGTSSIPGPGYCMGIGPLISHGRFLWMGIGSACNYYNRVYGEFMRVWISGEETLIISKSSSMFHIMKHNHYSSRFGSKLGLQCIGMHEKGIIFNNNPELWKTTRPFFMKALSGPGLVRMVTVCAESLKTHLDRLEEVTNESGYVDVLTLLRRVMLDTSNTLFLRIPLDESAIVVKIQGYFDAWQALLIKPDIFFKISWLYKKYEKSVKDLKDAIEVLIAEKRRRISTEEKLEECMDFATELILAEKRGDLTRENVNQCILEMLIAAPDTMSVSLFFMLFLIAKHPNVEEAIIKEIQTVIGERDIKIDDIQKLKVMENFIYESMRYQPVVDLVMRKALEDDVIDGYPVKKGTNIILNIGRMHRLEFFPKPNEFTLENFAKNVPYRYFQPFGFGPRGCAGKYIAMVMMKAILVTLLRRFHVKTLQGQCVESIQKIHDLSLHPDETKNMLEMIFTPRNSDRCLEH
Experimental: Cell Culture. AR and SK-BR-3 cells were obtained from ATCC (Rockville, Md.). SK-BR-3 cells were maintained in phenol red-free custom media (MEM, Earle's salts, 1.5× amino acids, 2× non-essential amino acids, L-glutamine, 1.5× vitamins, Gibco BRL) supplemented with 10% fetal bovine serum (FBS), 2 mM L-glutamine and 20 mg/L gentamycin. JAR cells were maintained in RPMI 1640 medium with 2 mM L-glutamine adjusted to contain 1.5 g/L sodium bicarbonate, 4.5 g/L glucose, 10 mM HEPES, and 1.0 mM sodium pyruvate, 90%; FBS, 10%. Fetal bovine serum was heat inactivated for 30 min in a 56° C. water bath before use. Cell cultures were grown at 37° C., in a humidified atmosphere of 5% CO2 in a Hereaus CO2 incubator. For all experiments, cells were plated in 6 well plates and grown to subconfluency. Before treatment, the media was changed to a defined one containing DMEM/F12 media (Sigma) with 1.0 mg/mL human albumin (OSU Hospital Pharmacy), 5.0 mg/L human transferin and 5.0 mg/L bovine insulin.
Tritiated water-release assay in JAR and SK-BR-3 cell lines. Measurement of aromatase enzyme activity was based on the tritium water release assay. Cells in six well plates were treated with 0.1% DMSO (control), and inhibitors at the indicated concentrations. After 24 hours, the cells were incubated 3 hours (SK-BR-3 cells) or 1 hour (JAR cells) with fresh media along with 100 nM [1β-^3H]-androst-4-ene-3,17-dione (1 μCi). Subsequently, the reaction mixture was removed, and proteins were precipitated using 10% trichloroacetic acid at 42° C. for 20 min. After a brief centrifugation, the media was extracted three times with an equal amount of chloroform to remove remaining substrate and further treated with dextran-treated charcoal. After centrifugation, a 250-μl aliquot containing the product was counted in 5 ml of liquid scintillation mixture. Results were corrected for blanks and for the cell contents of culture flasks, and results were expressed as picomoles of ^3H2O formed per hour incubation time per million live cells (pmol/h/10^6 cells). To determine the amount of cells in each flask, the cells were lysed and analyzed using the diphenylamine DNA assay adapted to a 96-well plate. IC50 sigmoidal dose-response data were analyzed with Microsoft Excel and the Graphpad Prism (Version 3.0) program.
Diphenylamine DNA Assay To determine the amount of viable cells in each flask, the cells were lysed with 0.5N NaOH aqueous solution and analyzed using the diphenylamine DNA assay adapted to a 96-well plate. DNA standards (0-30 μg) were prepared using double-stranded DNA reconstituted in PBS and added in triplicates directly to the wells. A uniform cell suspension was prepared from the 6 well plate in 300 μl 0.5N NaOH aqueous solution, and 60 μl of the unknown samples were added in triplicates to separate wells. A solution of 0.16% acetaldehyde in water was prepared and mixed at a 1:5 ratio with perchloric acid (20% vol/vol). This solution (60 μl) was added to each well along with 100 μl of a 4% diphenylamine solution in glacial acetic acid. The plates were incubated at 37° C. for 24 hours. After centrifugation, 100 μl supernatant of each well was transferred to a new 96 well plate, and the OD595 was measured using a microplater reader. The DNA concentration was determined by extrapolation to the standard curve and the amount of cells/well was calculated using the equation: 1 cell≈7 pg DNA.

IC50 [1] [µM] | melting point [°C] | inhibition at 15 µM [3] [%] | SMILES | CYP19 gene expression [2]
5.87 | 128 to 131 |  | CC(C)Oc1cc([N+](=O)[O-])ccc1NS(C)(=O)=O [Compound 10, N-(2-Isopropyloxy-4-nitrophenyl)methanesulfonamide] | 
0.91 | 70 to 71 |  | CCCCCCCCCOc1cc([N+](=O)[O-])ccc1NS(C)(=O)=O [Compound 14, N-(2-Nonyloxy-4-nitrophenyl)methanesulfonamide] | 
> 25 | 125 to 126 |  | COc1cc([N+](=O)[O-])ccc1N(C)S(C)(=O)=O [Compound 25, N-Methyl-N-(2-methoxy-4-nitrophenyl)methanesulfonamide] | 
 | 163 to 165 | < 50 | CN(c1ccc([N+](=O)[O-])cc1OCc1cccc2ccccc12)S(C)(=O)=O [Compound 38c, N-methyl-N-[2-(α-naphthylmethoxy) 4-nitrophenyl]methanesulfonamide] | 

The next lines start with the molecule.

SMILES | IC50 [1] [µM] | melting point [°C] | inhibition at 15 µM [3] [%] | CYP19 gene expression [2]
CCCOc1cc([N+](=O)[O-])ccc1NS(C)(=O)=O [Compound 9, N-(2-Propyloxy-4-nitrophenyl)methanesulfonamide] | 2.51 | 117 to 119 |  | 
CCCCCCCCCOc1cc([N+](=O)[O-])ccc1N(C)S(C)(=O)=O [Compound 23, N-Methyl-N-(2-nonyloxy-4-nitrophenyl)methanesulfonamide] | 3.96 | 83 to 84 |  | 
CCCOc1cc([N+](=O)[O-])ccc1N(C)S(C)(=O)=O [Compound 18, N-Methyl-N-(2-propyloxy-4-nitrophenyl)methanesulfonamide] | 0.76 | 66 to 69 |  | 
CC(C)Oc1cc([N+](=O)[O-])ccc1N(C)S(C)(=O)=O [Compound 19, N-Methyl-N-(2-isopropyloxy-4-nitrophenyl)methanesulfonamide] | 2.81 | 99 to 100 |  | 
CS(=O)(=O)Nc1ccc([N+](=O)[O-])cc1OCCc1ccccc1 [Compound 37b, N-(2-phenylethoxy 4-nitrophenyl) methanesulfonamide] |  |  |  | not affect the CYP19 gene expression
CCCCCCOc1cc([N+](=O)[O-])ccc1NS(C)(=O)=O [Compound 15, N-(2-Hexyloxy-4-nitrophenyl)methanesulfonamide] | 2.67 | 74 to 76 |  | 
COc1cc([N+](=O)[O-])ccc1NS(C)(=O)=O [Compound 16, N-(2-Methoxy-4-nitrophenyl)methanesulfonamide] | > 25 | 128 to 130 |  | 
CCCCCCOc1cc([N+](=O)[O-])ccc1N(C)S(C)(=O)=O [Compound 24, N-Methyl-N-(2-hexyloxy-4-nitrophenyl)methanesulfonamide] | 4.49 | 44 to 46 |  | 
